These results are taken from publication PMC7542159, “Receptor occupancy of dual glucagon-like peptide 1/glucagon receptor agonist SAR425899 in individuals with type 2 diabetes” (Scientific Reports, 2020).

Data set [1] is described as follows: Plasma pharmacokinetics of SAR425899 (LC-MS/MS). As to conditions: human, in vivo, sc, 0.2 mg. The procedure:
Blood samples were collected at multiple time points after the last dose on Day 20 for measurement of SAR425899 in plasma using a liquid chromatography with tandem mass spectrometry (LC–MS/MS) method. Peak plasma concentrations (Cmax), time to Cmax (tmax) and area under the plasma concentration versus time curve for the last measurable plasma concentration (AUC0–last) were calculated using noncompartmental methods.

Data set [2] can be described thus: Liver volume on CT images. As to conditions: for Liver volume change: Fig. 2B. It counts as in vivo, human. The procedure:
Both factors could potentially quantitatively impact the binding of [^68Ga]Ga-DO3A-Tuna-2 in the liver. Thus, the SUV55min at follow-up investigation was proportionally corrected for the decrease in liver volume compared to baseline. Additionally, SUV55min at baseline was corrected to the plasma glucagon value of the individual at follow-up to enable direct comparison between the PET assessments.
Marked weight loss and glucose lowering, as observed in this study, may have rapid and meaningful effects on the hepatic volume in short time periods, due primarily to the depletion of liver glycogen, which in turn bind large amounts of water. A reduction of the liver volume due to decrease in glycogen and water could likely affect the PET data by increasing the hepatocyte density (and in turn the GCGR density) per voxel. The liver volume was therefore assessed on CT images, and the [^68Ga]Ga-DO3A-Tuna-2 liver uptake SUV55min data corrected for the corresponding change in hepatic volume on an individual level. However, this correction may also introduce errors especially since there are inhomogeneities in GCGR expression levels in different parts of the liver (Fig. 3A,C,E). Furthermore, this correction assumes negligible changes on GCGR expression on hepatocytes over time. The occupancy data before the different corrections are therefore reported separately in Fig. 4C,D. Further corrections regarding the potentially non-isotropic GCGR expression could be attempted, but regardless the impact on the occupancy is expected to be low, while potentially introducing noise to the assessment. [^68Ga]Ga-DO3A-Exendin-4 uptake in pancreas is not expected to require correction, as no similar mechanism for rapid volume change is present in pancreas.

In another data set the target is T1, human GCGR (Homo sapiens, UniProt P47871).
T1 construct: expressed in transfected cells; host or cells: HEK293
T1 sequence (P47871 26-477): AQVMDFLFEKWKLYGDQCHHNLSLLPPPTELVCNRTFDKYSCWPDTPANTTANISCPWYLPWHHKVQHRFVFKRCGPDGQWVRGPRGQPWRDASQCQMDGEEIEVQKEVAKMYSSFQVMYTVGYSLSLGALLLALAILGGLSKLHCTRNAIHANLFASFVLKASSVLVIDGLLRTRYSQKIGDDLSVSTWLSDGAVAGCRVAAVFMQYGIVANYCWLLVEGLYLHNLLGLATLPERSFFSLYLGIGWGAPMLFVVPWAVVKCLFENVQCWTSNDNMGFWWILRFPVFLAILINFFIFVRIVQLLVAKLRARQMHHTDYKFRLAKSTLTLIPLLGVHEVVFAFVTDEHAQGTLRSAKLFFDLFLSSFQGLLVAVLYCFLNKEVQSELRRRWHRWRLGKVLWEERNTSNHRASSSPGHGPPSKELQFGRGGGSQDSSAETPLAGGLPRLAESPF
Briefly: In vitro displacement of [^68Ga]Ga-DO3A-Tuna-2 in HEK293 cells overexpressing the human GCGR. As to conditions: pre-treatment with 50 µM, three independent experiments. It counts as binding. The procedure:
Figure 5 [^68Ga]Ga-DO3A-Tuna-2 was displaced by SAR525899 in vitro. HEK293 cells overexpressing the human GCGR were incubated with either [^68Ga]Ga-DO3A-Tuna-2 alone, or following pre-treatment with 50 µM SAR525899. Data from three independent repeated experiments. Stars indicate p < 0.001 as assessed by a Students t-test.

A further data set relates to GLP1R. As to conditions: higher at GLP1R; cited from earlier work. An excerpt: Noteworthy, the in vitro binding affinity for SAR425899 at the GLP1R was ~ fivefold higher than at the GCGR. This ratio of binding capacities has been chosen to prevent unwanted glucagon effects like increase of blood glucose. In fact, an increase of blood glucose has not been observed so far in a clinical setting. […] The exposure achieved with this dose in humans, however, might be too low to ...

Broadly, the AUC(0-t) is exposure summed from dosing to a finite time, without extrapolation to infinity. Read a low AUC(0-t) as less exposure. Usually Cmax stands for the maximum level reached in the sampled fluid or tissue. As a reminder, the Tmax is the time from dosing to the highest level. `CCCCCCCCCCCCCCCC(=O)N[C@@H](CCC(=O)N[C@@H](CCC(=O)NCCCC[C@H](NC(=O)[C@H](CCC(N)=O)NC(=O)[C@H](CCCCN)NC(=O)[C@H](CO)NC(=O)[C@H](CC(C)C)NC(=O)[C@H](CC(=O)O)NC(=O)[C@H](CO)NC(=O)[C@@H](NC(=O)[C@H](Cc1ccccc1)NC(=O)[C@@H](NC(=O)CNC(=O)[C@H](CCC(N)=O)NC(=O)[C@@H](CO)NC(=O)[C@@H](N)Cc1c[nH]cn1)[C@@H](C)O)[C@@H](C)O)C(=O)N[C@@H](CCC(=O)O)C(=O)N[C@@H](CO)C(=O)N[C@@H](CCCCN)C(=O)N[C@@H](C)C(=O)N[C@@H](C)C(=O)N[C@@H](CCC(N)=O)C(=O)N[C@@H](CC(=O)O)C(=O)N[C@@H](Cc1ccccc1)C(=O)N[C@H](C(=O)N[C@@H](CCC(=O)O)C(=O)N[C@@H](Cc1c[nH]c2ccccc12)C(=O)N[C@@H](CC(C)C)C(=O)N[C@@H](CCCCN)C(=O)N[C@@H](C)C(=O)NCC(=O)NCC(=O)N1CCC[C@H]1C(=O)N[C@@H](CO)C(=O)N[C@@H](CO)C(=O)NCC(=O)N[C@@H](C)C(=O)N1CCC[C@H]1C(=O)N1CCC[C@H]1C(=O)N1CCC[C@H]1C(=O)N[C@@H](CO)C(N)=O)[C@@H](C)CC)C(=O)O)C(=O)O` [SAR425899] registered an AUC(0-t) in data set [1] of 217 ng·h/mL. In data set [1], this molecule showed a maximum concentration (Cmax) of 25.1 ng/mL. The Tmax in data set [1] was determined as 7.62 h. In addition, the Liver volume change in data set [2] (0.12mg) is reported as -0.8%; in data set [2] (0.2mg), -10.4%. The “decrease in liver volume” value in data set [2] (under treatment with SAR425899, average (SD)) was 10.4 (6.1) %. Also, the “liver volume at follow up” value in data set [2] (under treatment with SAR425899, mean (SD), baseline 2.14 (0.45) dm^3) was 1.91 (0.36) dm^3. In addition, the “displacement of [^68Ga]Ga-DO3A-Tuna-2” value was “competes for the same binding site” on human GCGR (p < 0.001) and “displaced” at human GCGR (p < 0.001, listed as SAR525899). The “in vitro binding affinity at the GLP1R relative to the GCGR” value in the data set with GLP1R was “~ fivefold”.
